ChEMBL document CHEMBL1201862, “PubChem BioAssay data set” (2004)
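Each compound was tested at five concentrations against cells in 96-well plates for 48 hours. GI50 is the concentration that inhibits growth by half.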 Calls of active or inactive are those of the source. Cut-off read from the data, not from the text of the source: active = GI50 up to about 1.1 µM and inactive = higher.

Legend:
Experiment in all cases: NCI anticancer screen, dose series, 48 h
[1] = test system: DMS-273
[2] = test system: UO-31
[3] = test system: KM-20L2
[4] = test system: 786-0
[5] = test system: EKVX
[6] = test system: SK-MEL-5
[7] = test system: NCI-H226
[8] = test system: SNB-75
[9] = test system: A549
[10] = test system: CAKI-1
[11] = test system: SN12C
[12] = test system: U-251
[13] = test system: K562
[14] = test system: DMS-114
[15] = test system: LOX IMVI
[16] = test system: NCI-H522
[17] = test system: OVCAR-8
[18] = test system: OVCAR-5
[19] = test system: M14
[20] = test system: RPMI-8226
[21] = test system: RXF 631
[22] = test system: HOP-62
[23] = test system: NCI-H23
[24] = test system: OVCAR-4
[25] = test system: A498
[26] = test system: UACC-257
[27] = test system: HCT-116
[28] = test system: HCT-15
[29] = test system: MOLT-4
[30] = test system: SF-268
[31] = test system: COLO 205
[32] = test system: Malme-3M
[33] = test system: NCI-H460
[34] = test system: SF-539
[35] = test system: ACHN
[36] = test system: SF-295
[37] = test system: RXF 393
[38] = test system: IGROV-1
[39] = test system: KM12
[40] = test system: HOP-18
[41] = test system: SK-OV-3
[42] = test system: HCC 2998
[43] = test system: XF498
[44] = test system: SNB-19
[45] = test system: SK-MEL-2
[46] = test system: CCRF-CEM
[47] = test system: HT-29
[48] = test system: SW-620
[49] = test system: TK-10
[50] = test system: LXFL 529
[51] = test system: OVCAR-3
[52] = test system: UACC-62
[53] = test system: SNB-78
[54] = test system: M19-MEL
[55] = test system: HOP-92
[56] = test system: HL-60
[57] = test system: DLD-1
[58] = test system: SK-MEL-28

Measured: GI50

Cn1c(=O)nc2n(-c3cccc(Cl)c3)c3ccccc3nc-2c1=O
13 µM: [28]
inactive: [1] 9.55 µM | [2] 34.9 µM | [3] 5.92 µM | [4] 15.6 µM | [5] 12 µM | [6] 10.5 µM | [7] 22 µM | [8] 15.3 µM | [9] 11.4 µM | [10] 33.7 µM | [11] 12.8 µM | [12] 15.3 µM | [13] 14.1 µM | [14] 6.34 µM | [15] 18.7 µM | [16] 15.1 µM | [17] 18 µM | [18] 22.5 µM | [19] 7.93 µM | [20] 15.5 µM | [21] 13.5 µM | [22] 28.6 µM | [23] 5.9 µM | [24] 11.6 µM | [25] 30.5 µM | [26] 10.9 µM | [27] 13.8 µM | [29] 18.5 µM | [30] 18.2 µM | [31] 4.11 µM | [32] 3.5 µM | [33] 6.4 µM | [34] 16 µM | [35] 3.63 µM | [36] 16.6 µM | [37] 21.5 µM | [38] 24.8 µM | [39] 11.2 µM | [40] 12.2 µM | [41] 78.9 µM | [42] 10.7 µM | [43] 19.9 µM | [44] > 10 µM | [45] 17.1 µM | [46] 19 µM | [47] 4.53 µM | [48] 11.2 µM | [49] 17 µM | [50] 18.6 µM | [51] 2.45 µM | [52] 2.68 µM | [53] 23.7 µM

c1ccc(COc2cccc3ccc[n+](Cc4ccccc4)c23)cc1
inactive: [1] 3.8 µM | [2] 25.8 µM | [3] 4.12 µM | [54] 3.59 µM | [4] 13.4 µM | [5] 6.43 µM | [7] 3.31 µM | [8] 5.2 µM | [9] 7.46 µM | [12] 4.01 µM | [13] 2.38 µM | [14] 2.99 µM | [16] 1.95 µM | [18] 1.92 µM | [19] 9.38 µM | [55] 3.41 µM | [20] 2.77 µM | [21] 18.9 µM | [22] 12 µM | [23] 2.84 µM | [24] 3.6 µM | [25] 16.6 µM | [26] 2.61 µM | [29] 5.35 µM | [30] 4.06 µM | [31] 6.44 µM | [32] 4.23 µM | [33] 8.93 µM | [34] 7.82 µM | [35] 8.2 µM | [36] 4.26 µM | [37] 8.75 µM | [38] 3.03 µM | [39] 3.41 µM | [40] 2.07 µM | [41] 23.8 µM | [42] 13.1 µM | [43] 11.2 µM | [44] 3.52 µM | [56] 1.93 µM | [45] 5.21 µM | [46] 6.04 µM | [57] 11.5 µM | [47] 5.01 µM | [48] 9.75 µM | [49] 12.1 µM | [50] 3.62 µM | [52] 4.6 µM | [58] 3.85 µM
27.5 µM: [28]

CC(C)(C)C(=O)N1C(C(=O)O)Cc2ccccc2[C@@H]1Cc1ccccc1 (stereo partly drawn)
> 100 µM: [28]
inactive: [1] > 100 µM | [3] > 100 µM | [54] > 100 µM | [4] > 100 µM | [5] > 100 µM | [6] > 100 µM | [7] 45.6 µM | [8] > 100 µM | [9] > 100 µM | [10] > 100 µM | [11] > 100 µM | [12] > 100 µM | [13] > 100 µM | [14] > 100 µM | [16] > 100 µM | [17] > 100 µM | [18] > 100 µM | [19] > 100 µM | [55] > 100 µM | [20] > 100 µM | [21] > 100 µM | [22] > 100 µM | [23] > 100 µM | [24] > 100 µM | [25] > 100 µM | [26] > 100 µM | [27] > 100 µM | [29] > 100 µM | [30] > 100 µM | [31] > 100 µM | [32] > 100 µM | [33] > 100 µM | [34] > 100 µM | [35] > 100 µM | [36] > 100 µM | [37] > 100 µM | [38] > 100 µM | [39] > 100 µM | [40] > 100 µM | [41] > 100 µM | [42] > 100 µM | [43] > 100 µM | [44] > 100 µM | [56] > 100 µM | [45] > 100 µM | [46] > 100 µM | [47] > 100 µM | [48] > 100 µM | [49] > 100 µM | [50] > 100 µM | [51] > 100 µM | [52] > 100 µM | [53] > 100 µM | [58] > 100 µM
